In patent publication US11440923B2, “Substituted macrocyclic indole derivatives” (Bayer Aktiengesellschaft, priority 2017, dated 2022):
pIC50, pKd: −log10 of the molar value. Where a name gives a salt, the structure may show the parent alone. Read-outs that look alike come from different tables or passages of the source.

Key:
MCL-1 = MCL-1 (Homo sapiens (Human), UniProt Q07820, K194A/K197A/R201A); assay: Protein-compound interaction assay (SPR assay, Assay 9); type: binding; settings: for pKd: KD (geometric mean); for koff: read-out: koff (geometric mean), SPR, 25° C.; for kon: read-out: kon (geometric mean), SPR, 25° C.
Chain of MCL-1 (Q07820 whole entry K194A/K197A/R201A, looked up): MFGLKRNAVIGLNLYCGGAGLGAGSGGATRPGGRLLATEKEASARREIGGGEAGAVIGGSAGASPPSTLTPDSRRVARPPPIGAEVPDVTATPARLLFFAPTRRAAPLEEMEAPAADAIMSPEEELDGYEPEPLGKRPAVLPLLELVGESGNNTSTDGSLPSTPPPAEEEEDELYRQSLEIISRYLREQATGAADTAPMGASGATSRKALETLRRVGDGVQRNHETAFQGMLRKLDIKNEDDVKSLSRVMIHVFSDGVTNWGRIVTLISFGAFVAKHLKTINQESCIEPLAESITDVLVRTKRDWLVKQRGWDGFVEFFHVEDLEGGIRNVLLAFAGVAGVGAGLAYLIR
Text: Assay 9 Protein-Compound Interaction Assay (SPR Assay)
The ability of the compounds described in this invention to bind to MCL-1 may be determined using surface plasmon resonance (SPR). This allows for the quantification of binding in terms of the equilibrium dissociation constant (KD [M]), as well as association and dissociation rate constants (kon [1/Ms] and koff [1/s], respectively). The measurements may be performed using Biacore® T200 or Biacore® S200 instruments (GE Healthcare).
Briefly, carboxymethylated dextran biosensor chips (Series S Sensor Chip CMS, GE Healthcare) were activated with 1-ethyl-3-(3-dimethylaminopropyl)-carbodiimide hydrochloride (EDC) and N-hydroxysuccinimide (NHS) according to the supplier's instructions. MBP-MCL-1 was diluted in 1×PBS-P+ (GE Healthcare) and injected on the activated chip surface. Subsequently, a solution of 1 M ethanolamine-HCl (GE Healthcare) was injected to block unreacted groups, resulting in approximately 400-2500 response units (RU) of immobilized protein. A reference surface was generated by treatment with NHS-EDC and ethanolamine-HCl. […] Compounds were injected for 60 s followed by a dissociation time of up to 1000 s.
The double-referenced sensorgrams were fit to a simple reversible Langmuir 1:1 reaction mechanism as implemented in the Biacore® T200 and S200 evaluation software (T200 evaluation software version 2.0 and S200 evaluation software version 1.0, GE Healthcare).

SK-MEL-2 cells = assay: Antiproliferation assay SK-MEL-2 (Assay 7); type: cell-based; settings: Homo sapiens, SK-MEL-2; 72 h, CellTiter-Glo; read-out: Antiproli SK-MEL-2 IC50 median
Method in brief: (§1)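 IC50 values reflect growth relative to a day 0 baseline (CI) and DMSO vehicle (C0). Viable cells were quantified by CellTiter-Glo luminescence after 72 h treatment at 37 °C.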

A-431 cells = assay: Antiproliferation assay A-431 (Assay 7); type: cell-based; settings: Homo sapiens, A-431; 72 h, CellTiter-Glo; read-out: Antiproli A-431 IC50 median
Method: (§2) Assessment of the Anti-Proliferative Effect of Compounds in Different Cell Lines
(§3) The impact of compounds on the proliferation of different cell lines was assessed using the CellTiter-Glo® Luminescent Cell Viability reagent from Promega (G7573).
(§4) In parallel, cells were plated in a reference (day 0) plate for time zero determination. Cells were incubated in a humidified incubator at 37° C. overnight.
(§5) Rim wells were excluded. The cells were incubated for 72 h hours in a humidified incubator at 37° C. The day 0 plate was measured by adding 30 μL/well of CTG solution (CellTiter-Glo® Luminescent Cell Viability reagent, Promega G7573) to time zero wells in the reference plate followed by a 10 minutes incubation and luminescence reading at 0.1 ms. using the PHERAstar FS microplate reader (BMG Labtech).
(§6) After 72 h incubation, the treated plates were measured in the same way as the day 0 plate mentioned above. The Bella DRC Master Sheet was used to calculate IC50s, with CI=day 0 values and C0=DMSO control values.

DMS-114 cells = assay: Antiproliferation assay DMS-114 (Assay 7); type: cell-based; settings: Homo sapiens, read-out: Antiproli DM-S114 IC50 median
Method: as §2, §3, §4, §5, §6

SNU-16 cells = assay: Antiproliferation assay SNU-16 (Assay 7); type: cell-based; settings: Homo sapiens, SNU-16; 72 h, CellTiter-Glo; read-out: Antiproli SNU-16 IC50 median
Method: as §2, §3, §4, §5, §6

PA-1 cells = assay: Antiproliferation assay PA-1 (Assay 7); type: cell-based; settings: Homo sapiens, PA-1; 72 h, CellTiter-Glo; read-out: Antiproli PA-1 IC50 median
Method: as §2, §3, §4, §5, §6

SNU-389 cells = assay: Antiproliferation assay SNU-389 (Assay 7); type: cell-based; settings: 72 h, read-out: Antiproli SNU-389 IC50
Method in brief: as §1

MV-4-11 cells = assay: Antiproliferation assay MV-4-11 (Assay 7); type: cell-based
Method: as §2, §3, §4, §5, §6

[1] = DMS-114 cells, 72 h, CellTiter-Glo
[2] = Homo sapiens, MV4-11, 72 h, CellTiter-Glo, read-out: Antiproli MV-4-11 IC50 median
[3] = 72 h, CellTiter-Glo; read-out: Antiproli MV-4-11 IC50 median

Structure (SMILES)	pKd (MCL-1; SPR, 25° C.)	koff (MCL-1) [s⁻¹]	kon (MCL-1) [M⁻¹ s⁻¹]	also measured
CCC1OCCCCn2c(C(=O)O)c(CCCOc3cccc4ccccc34)c3ccc(Cl)c(c32)-c2c1nn(C)c2C (single isomer, unassigned; enantiomer 1) [Example 29, (+)-4-chloro-15-ethyl-2,3-dimethyl-7-{3-[(naphthalen-1-yl)oxy]propyl}-2,10,11,12,13,15-hexahydropyrazolo[4′,3′:9,10][1,6]oxazacycloundecino[8,7,6-hi]indole-8-carboxylic Acid—N-ethylethanamine Salt (Enantiomer 1)]	8.08	0.014	1.7e+06	–
CCc1c2c(nn1C)C(CCC(C)(C)O)OCCCCn1c(C(=O)O)c(CCCOc3cccc4cc(F)ccc34)c3ccc(Cl)c-2c31 (single isomer, unassigned; enantiomer 1) [Example 75, (+)-4-chloro-3-ethyl-7-{3-[(6-fluoronaphthalen-1-yl)oxy]propyl}-15-(3-hydroxy-3-methylbutyl)-2-methyl-2,10,11,12,13,15-hexahydropyrazolo[4′,3′:9,10][1,6]oxazacycloundecino[8,7,6-hi]indole-8-carboxylic Acid—N-ethylethanamine Salt (Enantiomer 1)]	9.62	0.0022	9e+06	pIC50 (SK-MEL-2 cells): 6.77; pIC50 (A-431 cells): 6.87; pIC50 (DMS-114 cells; [1]): 7.11; pIC50 (SNU-16 cells): 6.82; pIC50 (PA-1 cells): 6.93; pIC50 (SNU-389 cells; CellTiter-Glo): 6.88
Cc1c2c(nn1C)C(CCO)OCCCCn1c(C(=O)O)c(CCCOc3cccc4ccccc34)c3ccc(Cl)c-2c31 (single isomer, unassigned; enantiomer 1) [Example 31, (+)-4-chloro-15-(2-hydroxyethyl)-2,3-dimethyl-7-{3-[(naphthalen-1-yl)oxy]propyl}-2,10,11,12,13,15-hexahydropyrazolo[4′,3′:9,10][1,6]oxazacycloundecino[8,7,6-hi]indole-8-carboxylic Acid (Enantiomer 1)]	8.74	0.008	4.4e+06	–
CCc1c2c(nn1C)C(CCOC)OCCCCn1c(C(=O)O)c(CCCOc3cccc4cc(F)ccc34)c3ccc(Cl)c-2c31 (single isomer, unassigned; enantiomer 1) [Example 42, (+)-4-chloro-3-ethyl-7-{3-[(6-fluoronaphthalen-1-yl)oxy]propyl}-15-(2-methoxyethyl)-2-methyl-2,10,11,12,13,15-hexahydropyrazolo[4′,3′:9,10][1,6]oxazacycloundecino[8,7,6-hi]indole-8-carboxylic Acid—N-ethylethanamine Salt (Enantiomer 1)]	8.55	0.0032	1.2e+06	pIC50 (DMS-114 cells; DMS-114, 72 h): 6.81; pIC50 (SNU-389 cells): 6.57
Cc1c2c(nn1C)C(CCN1CCOCC1)OCCCCn1c(C(=O)O)c(CCCOc3cccc4ccccc34)c3ccc(Cl)c-2c31 (racemic) [Example 13, (rac)-4-chloro-2,3-dimethyl-15-[2-(morpholin-4-yl)ethyl]-7-{3-[(naphthalen-1-yl)oxy]propyl}-2,10,11,12,13,15-hexahydropyrazolo[4′,3′:9,10][1,6]oxazacycloundecino[8,7,6-hi]indole-8-carboxylic Acid]	–	–	–	pIC50 (MV-4-11 cells; [2]): 6.66
CCc1c2c(nn1C)C(CCN1CCOCC1)OCCCCn1c(C(=O)O)c(CCCOc3cccc4ccccc34)c3ccc(F)c-2c31 (single isomer, unassigned; enantiomer 2) [Example 12, 3-ethyl-4-fluoro-2-methyl-15-[2-(morpholin-4-yl)ethyl]-7-{3-[(naphthalen-1-yl)oxy]propyl}-2,10,11,12,13,15-hexahydropyrazolo[4′,3′:9,10][1,6]oxazacycloundecino[8,7,6-hi]indole-8-carboxylic Acid—N-ethylethanamine Salt (Enantiomer 2)]	7.66	–	–	pIC50 (MV-4-11 cells; read-out: Antiproli MV-4-11 IC50 median; 72 h, CellTiter-Glo): 4.84; koff (geometric mean) (MCL-1; SPR, 25° C.): 3.4 E−3 1/s; kon (geometric mean) (MCL-1; SPR, 25° C.): 1.5 E5 1/M 1/s
Cc1c2c(nn1C)C(CCN1CCOCC1)OCCCCn1c(C(=O)O)c(CCCOc3cccc4ccccc34)c3ccc(Cl)c-2c31 (single isomer, unassigned; enantiomer 2) [Example 15, 4-chloro-2,3-dimethyl-15-[2-(morpholin-4-yl)ethyl]-7-{3-[(naphthalen-1-yl)oxy]propyl}-2,10,11,12,13,15-hexahydropyrazolo[4′,3′:9,10][1,6]oxazacycloundecino[8,7,6-hi]indole-8-carboxylic Acid (Enantiomer 2)]	–	–	–	pIC50 (MV-4-11 cells; [3]): 5.11
CCc1c2c(nn1C)C(CCC1CCOCC1)OCCCCn1c(C(=O)O)c(CCCOc3cccc4cc(F)ccc34)c3ccc(Cl)c-2c31 (single isomer, unassigned; enantiomer 1) [Example 61, 4-chloro-3-ethyl-7-{3-[(6-fluoronaphthalen-1-yl)oxy]propyl}-2-methyl-15-[2-(oxan-4-yl)ethyl]-2,10,11,12,13,15-hexahydropyrazolo[4′,3′:9,10][1,6]oxazacycloundecino[8,7,6-hi]indole-8-carboxylic Acid (Enantiomer 1)]	8.89	0.0021	1.6e+06	–
Cc1c2c(nn1C)C(CCN1CCOCC1)OCCCCn1c(C(=O)O)c(CCCOc3cccc4cc(F)ccc34)c3ccc(Cl)c-2c31 (single isomer, unassigned; enantiomer 1) [Example 17, 4-chloro-7-{3-[(6-fluoronaphthalen-1-yl)oxy]propyl}-2,3-dimethyl-15-[2-(morpholin-4-yl)ethyl]-2,10,11,12,13,15-hexahydropyrazolo[4′,3′:9,10][1,6]oxazacycloundecino[8,7,6-hi]indole-8-carboxylic Acid—N-ethylethanamine (Enantiomer 1)]	9.11	0.015	2e+07	–
Cc1c2c(nn1C)C(CCN1CCOCC1)OCCCCn1c(C(=O)O)c(CCCOc3cccc4cc(F)ccc34)c3ccc(F)c-2c31 (racemic) [Example 19, (rac)-4-fluoro-7-{3-[(6-fluoronaphthalen-1-yl)oxy]propyl}-2,3-dimethyl-15-[2-(morpholin-4-yl)ethyl]-2,10,11,12,13,15-hexahydropyrazolo[4′,3′:9,10][1,6]oxazacycloundecino[8,7,6-hi]indole-8-carboxylic Acid]	–	–	–	pIC50 (MV-4-11 cells; [2]): 6.85
Cc1c2c(nn1C)C(CCN1CCOCC1)OCCCCn1c(C(=O)O)c(CCCOc3cccc4ccccc34)c3ccc(Cl)c-2c31 (single isomer, unassigned; enantiomer 1) [Example 14, 4-chloro-2,3-dimethyl-15-[2-(morpholin-4-yl)ethyl]-7-{3-[(naphthalen-1-yl)oxy]propyl}-2,10,11,12,13,15-hexahydropyrazolo[4′,3′:9,10][1,6]oxazacycloundecino[8,7,6-hi]indole-8-carboxylic Acid (Enantiomer 1)]	8.89	0.031	2.3e+07	pIC50 (DMS-114 cells; [1]): 6.82; pIC50 (SNU-389 cells; CellTiter-Glo): 6.74; pIC50 (MV-4-11 cells; [3]): 7.42
CCc1c2c(nn1C)C(CCO)OCCCCn1c(C(=O)O)c(CCCOc3cccc4cc(F)ccc34)c3ccc(Cl)c-2c31 (single isomer, unassigned; enantiomer 1) [Example 45, (+)-4-chloro-3-ethyl-7-{3-[(6-fluoronaphthalen-1-yl)oxy]propyl}-15-(2-hydroxyethyl)-2-methyl-2,10,11,12,13,15-hexahydropyrazolo[4′,3′:9,10][1,6]oxazacycloundecino[8,7,6-hi]indole-8-carboxylic Acid (Enantiomer 1)]	8.64	0.0068	3e+06	pIC50 (DMS-114 cells; [1]): 6.53; pIC50 (SNU-389 cells; CellTiter-Glo): 6.46
